This note sets out measurements from EPA's ToxValDB 9.5 (doi:10.2903/j.efsa.2010.1653).

The subject of data set [1] is Tagia sp. The conditions noted are these: acute; duration: 14 days; mortality.
The subject of data set [2] is Typhlodromus pyri. The settings on record: chronic/long-term; duration: 14 days; reproduction.
Data set [3] concerns Bibionidae. The conditions noted are these: chronic/long-term; duration: 28 days; development.
In data set [4] the test system is Colinus virginianus.
For data set [5], the system named is Oryctolagus sp. The conditions noted are these: developmental; development.
Data set [6] relates to Coturnix japonica. The settings on record: acute; oral; mortality.
The test system of data set [7] is Daphnia magna. The settings on record: chronic/long-term; duration: 21 days; reproduction.
The test system of data set [8] is Apis mellifera. The settings on record: acute; duration: 48 hours; oral; unspecified; mortality.
Data set [9] concerns Canidae. The settings on record: chronic; duration: 1 years; oral; Dog Other; body weight.
Data set [10] deals with Rattus norvegicus.
For data set [11], the system named is Oncorhynchus mykiss.
Data set [12] has as its system Typhlodromus pyri. In words: LR50; higher = less toxic. The conditions noted are these: acute; duration: 7 days; mortality.
[13] abbreviates: reproduction developmental, reproduction.

A word on the NOAEL: it is the highest dose or exposure tested at which no adverse effect was seen. Take `Cc1cc(=O)[nH]o1` [Hymexazol]: the LC50 in data set [1] was 282 mg/kg; in data set [4] (acute, oral, diet, mortality), more than 1470 mg/kg-day; in data set [11] (acute, duration: 96 hours, mortality), more than 100 µg/mL. Moreover, the NOEC in data set [2] was 400 g/ha; in data set [3], 1.6 mg/L; in data set [4] (setting [13]) it was 86.5 mg/kg-day; in data set [7], 0.8 mg/L; in data set [11] (chronic/long-term, duration: 28 days, body weight), more than 100 mg/L. The figures for the no observed adverse effect level (NOAEL) in [5] and in data set [9] were 50 mg/kg-day and 17 mg/kg-day, respectively. In addition, the LD50 is more than 1080 mg/kg in data set [6]; more than 100 µg/piece in data set [8]; 1390 mg/kg in data set [10] (acute, oral, mortality). In data set [10] (setting [13]), this compound came in with an NOEL of 37 mg/kg-day. Besides, the LR50 in [12] is 1110 g/ha.
